Results reported in patent publication US10196390B2, “TYK2 inhibitors and uses thereof” (Nimbus Lakshmi, Inc., priority 2014, dated 2019).

Experiments:
TYK2 = TYK2 (Homo sapiens (Human), UniProt P29597); experiment: Tyk2 activity inhibition assay (radioactive kinase assay / Caliper assay); assay type: biochemical
In short: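 Radiometric format: TYK2 with peptide substrate (20 μM) and 33P-ATP at 10 μM in HEPES pH 7.5, 1% DMSO, 120 min at room temp, P81 paper capture. Caliper mobility-shift format: TYK2 9.75 nM, peptide 30 at 3 uM, ATP 16 uM (also 1 mM), 25 min at 28° C.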

JAK2 = JAK2 (Homo sapiens (Human), UniProt O60674); experiment: JAK2 activity inhibition assay (radioactive kinase assay / Caliper assay); assay type: biochemical; conditions: read-out: JAK2 Ki
JAK2, sequence (O60674 whole entry): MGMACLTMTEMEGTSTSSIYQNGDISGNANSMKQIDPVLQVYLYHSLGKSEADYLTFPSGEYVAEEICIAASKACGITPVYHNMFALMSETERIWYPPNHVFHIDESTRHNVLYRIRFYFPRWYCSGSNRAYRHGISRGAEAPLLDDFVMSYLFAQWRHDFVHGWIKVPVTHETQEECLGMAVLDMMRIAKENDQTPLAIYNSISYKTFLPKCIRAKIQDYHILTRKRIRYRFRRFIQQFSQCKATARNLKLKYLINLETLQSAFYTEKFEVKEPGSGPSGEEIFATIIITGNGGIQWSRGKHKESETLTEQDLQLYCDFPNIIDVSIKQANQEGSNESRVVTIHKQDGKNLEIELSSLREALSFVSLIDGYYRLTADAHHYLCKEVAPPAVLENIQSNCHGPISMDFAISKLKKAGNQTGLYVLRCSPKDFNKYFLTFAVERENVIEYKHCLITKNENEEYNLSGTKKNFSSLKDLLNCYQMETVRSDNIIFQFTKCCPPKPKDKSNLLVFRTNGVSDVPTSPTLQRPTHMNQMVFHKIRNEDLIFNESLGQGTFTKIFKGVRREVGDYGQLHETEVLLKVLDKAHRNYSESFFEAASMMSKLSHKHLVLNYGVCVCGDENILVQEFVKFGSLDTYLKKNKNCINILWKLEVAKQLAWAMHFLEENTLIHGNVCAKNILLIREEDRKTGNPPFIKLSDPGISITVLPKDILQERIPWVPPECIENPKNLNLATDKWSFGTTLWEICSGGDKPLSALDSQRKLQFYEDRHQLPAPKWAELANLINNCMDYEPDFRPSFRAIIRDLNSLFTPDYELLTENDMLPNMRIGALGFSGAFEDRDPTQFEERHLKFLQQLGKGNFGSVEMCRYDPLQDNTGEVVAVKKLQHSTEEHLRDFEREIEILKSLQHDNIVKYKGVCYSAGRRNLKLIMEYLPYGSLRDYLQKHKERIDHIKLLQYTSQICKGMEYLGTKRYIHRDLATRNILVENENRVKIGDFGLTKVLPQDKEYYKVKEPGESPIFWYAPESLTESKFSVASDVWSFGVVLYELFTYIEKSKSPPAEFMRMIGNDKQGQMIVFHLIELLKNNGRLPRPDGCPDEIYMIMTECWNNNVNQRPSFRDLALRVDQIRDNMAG
In short: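 Mobility-shift (Caliper) read-out of phosphorylated peptide substrate. Compound diluted in 25 mM HEPES pH 7.5, 0.01% Brij-35, 0.01% Triton, 0.5 mM EGTA; enzyme added, then peptide plus ATP in 10 mM MgCl2. Incubated 25 min at 28° C, stopped with EDTA buffer.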

TYK2, sequence (P29597 whole entry): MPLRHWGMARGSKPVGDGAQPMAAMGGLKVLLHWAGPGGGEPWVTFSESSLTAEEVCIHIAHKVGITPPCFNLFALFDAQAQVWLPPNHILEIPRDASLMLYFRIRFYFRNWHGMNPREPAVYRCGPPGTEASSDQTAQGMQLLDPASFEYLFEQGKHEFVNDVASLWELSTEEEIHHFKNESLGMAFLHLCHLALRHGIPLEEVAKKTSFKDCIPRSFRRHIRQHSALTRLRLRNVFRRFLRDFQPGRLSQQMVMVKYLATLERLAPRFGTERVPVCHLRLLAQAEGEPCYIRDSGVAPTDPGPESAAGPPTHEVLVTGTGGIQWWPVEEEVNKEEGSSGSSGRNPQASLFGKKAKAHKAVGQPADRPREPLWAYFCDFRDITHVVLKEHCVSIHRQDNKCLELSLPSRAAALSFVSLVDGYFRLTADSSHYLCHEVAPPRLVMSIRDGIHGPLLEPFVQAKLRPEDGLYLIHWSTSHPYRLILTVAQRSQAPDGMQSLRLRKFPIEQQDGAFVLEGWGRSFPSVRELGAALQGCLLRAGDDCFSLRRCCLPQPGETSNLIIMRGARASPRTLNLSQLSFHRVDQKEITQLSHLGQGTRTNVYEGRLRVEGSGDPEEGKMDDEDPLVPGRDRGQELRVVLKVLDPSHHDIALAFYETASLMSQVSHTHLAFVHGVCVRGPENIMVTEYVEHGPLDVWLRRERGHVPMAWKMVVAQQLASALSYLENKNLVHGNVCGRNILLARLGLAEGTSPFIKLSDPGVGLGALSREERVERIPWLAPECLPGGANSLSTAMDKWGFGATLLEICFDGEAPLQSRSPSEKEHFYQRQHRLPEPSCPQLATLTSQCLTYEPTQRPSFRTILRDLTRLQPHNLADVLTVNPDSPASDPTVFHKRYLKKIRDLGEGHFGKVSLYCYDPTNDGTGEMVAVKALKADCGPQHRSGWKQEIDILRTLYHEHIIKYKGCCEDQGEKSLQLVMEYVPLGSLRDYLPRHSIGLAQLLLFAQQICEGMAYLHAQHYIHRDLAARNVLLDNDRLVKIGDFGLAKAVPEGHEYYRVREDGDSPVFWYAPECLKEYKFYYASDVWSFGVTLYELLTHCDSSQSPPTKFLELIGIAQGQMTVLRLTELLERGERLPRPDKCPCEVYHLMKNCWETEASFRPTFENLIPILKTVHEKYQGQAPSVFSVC

Ki (TYK2) | Ki (JAK2) | Structure (SMILES)
< 10 nM | 100 to 1000 nM | O=C1NCc2nc(-c3c(F)cccc3F)nc(Nc3ccc([C@H]4CCN(C5CCC5)C4=O)cc3)c21 [Compound I-118, (R)-4-((4-(1-cyclobutyl-2-oxopyrrolidin-3-yl)phenyl)amino)-2-(2,6-difluorophenyl)-6,7-dihydro-5H-pyrrolo[3,4-d]pyrimidin-5-one]
< 10 nM | 100 to 1000 nM | O=C1NCc2nc(-c3c(F)cccc3F)nc(Nc3ccc(C4CCN(CCN5CCOCC5)C4=O)cc3)c21 (stereo not drawn) [Compound I-121, 2-(2,6-difluorophenyl)-4-((4-(1-(2-morpholinoethyl)-2-oxopyrrolidin-3-yl)phenyl)amino)-6,7-dihydro-5H-pyrrolo[3,4-d]pyrimidin-5-one]
< 10 nM | 100 to 1000 nM | O=C1NCc2nc(-c3c(F)cccc3F)nc(Nc3ccc([C@H]4CCN(CCN5CCOCC5)C4=O)cc3)c21 [Compound I-122, (R)-2-(2,6-difluorophenyl)-4-((4-(1-(2-morpholinoethyl)-2-oxopyrrolidin-3-yl)phenyl)amino)-6,7-dihydro-5H-pyrrolo[3,4-d]pyrimidin-5-one]
< 10 nM | 100 to 1000 nM | O=C1NCc2nc(-c3c(F)cccc3F)nc(Nc3ccc([C@@H]4CCN(CCN5CCOCC5)C4=O)cc3)c21 [Compound I-123, (S)-2-(2,6-difluorophenyl)-4-((4-(1-(2-morpholinoethyl)-2-oxopyrrolidin-3-yl)phenyl)amino)-6,7-dihydro-5H-pyrrolo[3,4-d]pyrimidin-5-one]
< 10 nM | 10 to 100 nM | CC1(c2ccc(Nc3nc(-c4c(F)cccc4F)nc4c3C(=O)NC4)cc2)CCN(C2CCOCC2)C1=O (stereo not drawn) [Compound I-124, 2-(2,6-difluorophenyl)-4-((4-(3-methyl-2-oxo-1-(tetrahydro-2H-pyran-4-yl)pyrrolidin-3-yl)phenyl)amino)-6,7-dihydro-5H-pyrrolo[3,4-d]pyrimidin-5-one]
< 10 nM | 10 to 100 nM | C[C@@]1(c2ccc(Nc3nc(-c4c(F)cccc4F)nc4c3C(=O)NC4)cc2)CCN(C2CCOCC2)C1=O [Compound I-125, (S)-2-(2,6-difluorophenyl)-4-((4-(3-methyl-2-oxo-1-(tetrahydro-2H-pyran-4-yl)pyrrolidin-3-yl)phenyl)amino)-6,7-dihydro-5H-pyrrolo[3,4-d]pyrimidin-5-one]
< 10 nM | 10 to 100 nM | C[C@]1(c2ccc(Nc3nc(-c4c(F)cccc4F)nc4c3C(=O)NC4)cc2)CCN(C2CCOCC2)C1=O [Compound I-126, (R)-2-(2,6-difluorophenyl)-4-((4-(3-methyl-2-oxo-1-(tetrahydro-2H-pyran-4-yl)pyrrolidin-3-yl)phenyl)amino)-6,7-dihydro-5H-pyrrolo[3,4-d]pyrimidin-5-one]
> 1000 nM | > 1000 nM | COC(=O)[C@H]1C[C@H](Nc2nc(-c3c(F)cccc3F)nc3c2C(=O)NC3)C1 [Compound I-129, methyl (1r,3r)-3-((2-(2,6-difluorophenyl)-5-oxo-6,7-dihydro-5H-pyrrolo[3,4-d]pyrimidin-4-yl)amino)cyclobutane-1-carboxylate]
> 1000 nM | > 1000 nM | O=C1NCc2nc(-c3c(F)cccc3F)nc(N[C@H]3C[C@H](C(=O)O)C3)c21 [Compound I-130, (1r,3r)-3-((2-(2,6-difluorophenyl)-5-oxo-6,7-dihydro-5H-pyrrolo[3,4-d]pyrimidin-4-yl)amino)cyclobutane-1-carboxylic Acid]
> 1000 nM | > 1000 nM | CCNC(=O)[C@H]1C[C@H](Nc2nc(-c3c(F)cccc3F)nc3c2C(=O)NC3)C1 [Compound I-131, (1r,3r)-3-((2-(2,6-difluorophenyl)-5-oxo-6,7-dihydro-5H-pyrrolo[3,4-d]pyrimidin-4-yl)amino)-N-ethylcyclobutane-1-carboxamide]
< 10 nM | 10 to 100 nM | COC(=O)Cc1ccc(Nc2cc(-c3c(F)cccc3F)nc3c2C(=O)NC3)nc1 [Compound I-132, methyl 2-(6-((2-(2,6-difluorophenyl)-5-oxo-6,7-dihydro-5H-pyrrolo[3,4-b]pyridin-4-yl)amino)pyridin-3-yl)acetate]
< 10 nM | 10 to 100 nM | O=C1NCc2nc(-c3c(F)cccc3F)cc(Nc3ccc(C4CCNC4=O)cn3)c21 (stereo not drawn) [Compound I-133, 2-(2,6-difluorophenyl)-4-((5-(2-oxopyrrolidin-3-yl)pyridin-2-yl)amino)-6,7-dihydro-5H-pyrrolo[3,4-b]pyridin-5-one]
< 10 nM | 10 to 100 nM | O=C(NC1CCOCC1)c1ccc(Nc2cc(-c3c(F)cccc3F)nc3c2C(=O)NC3)nc1 [Compound I-139, 6-((2-(2,6-difluorophenyl)-5-oxo-6,7-dihydro-5H-pyrrolo[3,4-b]pyridin-4-yl)amino)-N-(tetrahydro-2H-pyran-4-yl)nicotinamide]
< 10 nM | 10 to 100 nM | N[C@H]1CCCN(c2ccc(Nc3cc(-c4c(F)cccc4F)nc4c3C(=O)NC4)nc2)C1 [Compound I-143, (S)-4-((5-(3-aminopiperidin-1-yl)pyridin-2-yl)amino)-2-(2,6-difluorophenyl)-6,7-dihydro-5H-pyrrolo[3,4-b]pyridin-5-one]
< 10 nM | 100 to 1000 nM | O=C1NCc2nc(-c3c(F)cccc3F)nc(Nc3ccc(C4CCN(CCO)C4=O)cc3)c21 (stereo not drawn) [Compound I-149, 2-(2,6-difluorophenyl)-4-((4-(1-(2-hydroxyethyl)-2-oxopyrrolidin-3-yl)phenyl)amino)-6,7-dihydro-5H-pyrrolo[3,4-d]pyrimidin-5-one]
< 10 nM | 100 to 1000 nM | CN1CC[C@@](C)(c2ccc(Nc3nc(-c4c(F)cccc4F)nc4c3C(=O)NC4)cc2)C1=O [Compound I-151, (S)-2-(2,6-difluorophenyl)-4-((4-(1,3-dimethyl-2-oxopyrrolidin-3-yl)phenyl)amino)-6,7-dihydro-5H-pyrrolo[3,4-d]pyrimidin-5-one]
< 10 nM | 100 to 1000 nM | CN1CC[C@](C)(c2ccc(Nc3nc(-c4c(F)cccc4F)nc4c3C(=O)NC4)cc2)C1=O [Compound I-152, (R)-2-(2,6-difluorophenyl)-4-((4-(1,3-dimethyl-2-oxopyrrolidin-3-yl)phenyl)amino)-6,7-dihydro-5H-pyrrolo[3,4-d]pyrimidin-5-one]
< 10 nM | 100 to 1000 nM | O=C1NCc2nc(-c3c(F)cccc3F)nc(Nc3ccc(C4CCCNC4=O)cc3)c21 (stereo not drawn) [Compound I-153, 2-(2,6-difluorophenyl)-4-((4-(2-oxopiperidin-3-yl)phenyl)amino)-6,7-dihydro-5H-pyrrolo[3,4-d]pyrimidin-5-one]
< 10 nM | 100 to 1000 nM | O=C1NCc2nc(-c3c(F)cccc3F)nc(Nc3ccc([C@@H]4CCCNC4=O)cc3)c21 [Compound I-155, (S)-2-(2,6-difluorophenyl)-4-((4-(2-oxopiperidin-3-yl)phenyl)-amino)-6,7-dihydro-5H-pyrrolo[3,4-d]pyrimidin-5-one]
< 10 nM | 100 to 1000 nM | O=C(O)c1ccc(Nc2nc(-c3c(F)cccc3F)nc3c2C(=O)NC3)cc1 [Compound I-156, 4-((2-(2,6-difluorophenyl)-5-oxo-6,7-dihydro-5H-pyrrolo[3,4-d]pyrimidin-4-yl)amino)benzoicacid]
10 to 100 nM | 100 to 1000 nM | O=C1NCc2nc(-c3c(F)cccc3F)nc(Nc3ccc(C(=O)N4CC5(COC5)C4)cc3)c21 [Compound I-157, 4-((4-(2-oxa-6-azaspiro[3.3]heptane-6-carbonyl)phenyl)amino)-2-(2,6-difluorophenyl)-6,7-dihydro-5H-pyrrolo[3,4-d]pyrimidin-5-one]
10 to 100 nM | 100 to 1000 nM | O=C1NCc2nc(-c3c(F)cccc3F)nc(Nc3ccc(C(=O)N4CCC4)cc3)c21 [Compound I-158, 4-((4-(azetidine-1-carbonyl)phenyl)amino)-2-(2,6-difluoro-phenyl)-6,7-dihydro-5H-pyrrolo[3,4-d]pyrimidin-5-one]

Structure (SMILES) | Ki (TYK2) | Ki (JAK2)
O=C1NCc2nc(-c3c(F)cccc3F)nc(Nc3ccc([C@@H]4CCN(C5CCC5)C4=O)cc3)c21 [Compound I-119, (S)-4-((4-(1-cyclobutyl-2-oxopyrrolidin-3-yl)phenyl)amino)-2-(2,6-difluorophenyl)-6,7-dihydro-5H-pyrrolo[3,4-d]pyrimidin-5-one] | < 10 nM | 100 to 1000 nM
CCNC(=O)C(C)(C)c1ccc(Nc2nc(-c3c(F)cccc3F)nc3c2C(=O)NC3)cc1 [Compound I-120, 2-(4-((2-(2,6-difluorophenyl)-5-oxo-6,7-dihydro-5H-pyrrolo[3,4-d]pyrimidin-4-yl)amino)phenyl)-N-ethyl-2-methylpropanamide] | < 10 nM | 100 to 1000 nM
O=C(NCCN1CCOCC1)c1ccc(Nc2nc(-c3c(F)cccc3F)nc3c2C(=O)NC3)cc1 [Compound I-127, 4-((2-(2,6-difluorophenyl)-5-oxo-6,7-dihydro-5H-pyrrolo[3,4-d]pyrimidin-4-yl)amino)-N-(2-morpholinoethyl)benzamide] | < 10 nM | 10 to 100 nM
O=C1NCc2nc(-c3c(F)cccc3F)cc(Nc3ccc(OCCN4CCC4)cn3)c21 [Compound I-134, 4-((5-(2-(azetidin-1-yl)ethoxy)pyridin-2-yl)amino)-2-(2,6-difluorophenyl)-6,7-dihydro-5H-pyrrolo[3,4-b]pyridin-5-one] | < 10 nM | 10 to 100 nM
COc1ccc(Nc2cc(-c3c(F)cccc3Cl)nc3c2C(=O)NC3)nc1 [Compound I-145, 2-(2-chloro-6-fluorophenyl)-4-((5-methoxypyridin-2-yl)amino)-6,7-dihydro-5H-pyrrolo[3,4-b]pyridin-5-one] | < 10 nM | 10 to 100 nM
